According to patent US20250249001A1, “METHODS OF TREATING SUBSTANCE USE DISORDER WITH 4-(3-CYANOPHENYL)-6-PYRIDINYLPYRIMIDINE MGLU5 NEGATIVE ALLOSTERIC MODULATORS” (Tempero Bio, Inc., priority 2022, published 2025):

How the values were obtained:
[1] = system: voluntary home-cage alcohol drinking by Wistar rats; assay: Home-cage two-bottle choice alcohol drinking, acute treatment; type: in vivo; conditions: each drug 3 mg/kg i.p. acute
Method: Animals: Male Wistar rats (Charles River Laboratories, INC) were used in these studies. Rat housing and testing was conducted at the University of North Carolina at Chapel Hill (UNC-CH) School of Medicine in a state-of-the-art rodent vivarium approved by the Association for Assessment and Accreditation of Laboratory Animal Care International (AAALAC). Rat health was monitored daily by study investigators and veterinarians in the Division of Comparative Medicine UNC. All experimental procedures were carried out in accordance with the NIH Guide to Care and Use of Laboratory Animals (Committee for the Update of the Guide for the Care and Use of Laboratory Animals, 2011) and institutional guidelines.
Rats were housed individually in standard Plexiglas cages with standard rodent food and water available ad libitum. Upon arrival from the vendor, rats were given 7 days to acclimate to the vivarium during which they were weighed and handled by an investigator each day to monitor general health and habituate them to human contact. Rats were then weighed each day within 1-h of experimental procedures to calculate drug dosages relative to body weight. […] The colony was maintained at […] on a 12-hour light/dark cycle, with the lights on from 10 AM-10 PM. All behavioral experiments were conducted during the light portion of the light cycle.
Home-cage alcohol drinking method. Oral alcohol and water intake were examined using a two-bottle choice protocol, which is standard in the field and commonly used in our laboratory. Male Wistar rats (n=12) were first adapted to drinking from a 50 ml conical tube fitted with a standard stainless-steel ball bearing sipper tube that limits spillage. Then, two bottles were place on the cage daily. One bottle contained an alcohol solution and the other contained water. Bottles containing fresh solutions were weighed daily before and after a 24 hr access period. After drug treatment, bottles were weighed after 1 hr and 24 hrs of access. Each week, rats had 4-5 days of sweetened alcohol and water available and the remaining days only water.
Briefly, rats were first exposed to alcohol (10% v/v)+sucrose (5% w/v). versus water in the two bottles. Then, over a period of 6-weeks, the concentrations of alcohol and sucrose were gradually adjusted to alcohol (8% v/v)+sucrose (2% w/v) to achieve intake of pharmacologically relevant doses of alcohol. Rats were maintained at this concentration for the duration of the experiment for both acute (3.1.a) and chronic (3.1.b) home-cage drinking studies. Use of sweetened alcohol solutions in preclinical research provides face validity to the binge-intoxication stage of alcohol addiction in humans where sweeteners are commonly added to alcohol.
Compound 1 treatment. After establishing baseline intake of sweetened alcohol and water, rats were habituated to i.p. injections. All rats (N=12) were administered 3 habituation injections of vehicle (10% w/v kolliphor in BCD (10%)) prior to the Compound 1 dose response curve and alcohol intake was measured. Then, the Compound 1 dose response curve was conducted with dose order randomized according to a modified Latin-Square design. Rats were given a minimum of 1-2 days between injections to ensure normal drinking was re-established in absence of drug administration. Each dose of Compound 1 (0-10 mg/kg) was administered via i.p. injection and rats were placed back in the home-cage for 1 hr prior to the return of sweetened alcohol and water. Alcohol intake was measured after 1-h and 24-hrs of access in grams by weighing the drinking bottles. Data were excluded from 1 rat that emptied both bottles fully each day without drinking the solutions; thus, results are presented for a final group of N=11 rats.
Efficacy comparisons to MPEP and Naltrexone. […]

[2] = system: cue-induced reinstatement of alcohol-seeking behavior in Wistar rats; conditions: earlier work of the authors; cited from earlier work
[3] = system: cocaine reinstatement in rats; assay: Yohimbine-induced reinstatement of cocaine self-administration (Stage II); type: in vivo, Sprague-Dawley rats
Method: After completion of Stage I, the rats were re-trained with cocaine for one week to ensure stable baseline. And then the rats underwent a 6-day extinction training procedure in which only saline infusion occurred when active lever was pressed. Meanwhile, the rats were divided into 3 roughly even groups for pharmacological stressor-induced reinstatement—All rats received one injection of alpha-2 adrenergic antagonist yohimbine (2 mg/kg) and then placed into the training box immediately). Thirty min before yohimbine treatment, one group of rats received saline, another group received MTEP 3 mg/kg injection, and the 3rd group received Compound 1 at 3 mg/kg.
Yohimbine-induced reinstatement was re-tested two more times in the same rats 3 days and 6 days after the first test, under continuous extinction procedure (There were 2 more days of extinction training between the 1st and 2nd reinstatement test, and between the 2nd and 3rd reinstatement test). Using the 3×3 within subject design, each given animal goes through all three treatments (saline, MTEP and Compound 1) across the three rounds of test.
(§1) A one-way mixed-effects model (REML) of ANOVA followed by Dunnett's post hoc tests were used to analyze efficacy of Compound 1 and MTEP on cocaine self-administration in stages I (The repeated measure ANOVA was not totally applicable due to a few outlier data points, which are removed), and one-way mixed-effects model (REML) of ANOVA followed by Tukey's post hoc tests were used in Stage II. An effect was considered significant if P<0.05. Data were represented as the mean and standard error to the mean (s.e.m).
Statistical outliers which exceeded mean +/− (2× standard deviation) of the group were removed from the analysis. Also, for reinstatement, the extinction time was shortened (from 9 days plus extension as option to 6 days). In the present study, 3 rounds of reinstatement tests were performed, and we wished to maintain the reinstatement power, thus we cut extinction duration. Accordingly, we loosened the extinction criterion from 6 or less infusions to 9 or less infusions during the last extinction session. With this criterion, 17 out of 21 rats were eligible in drug test in Stage II.

[4] = system: oxycodone reinstatement in rats; assay: Yohimbine-induced reinstatement of oxycodone self-administration; type: in vivo, Sprague-Dawley rats; conditions: yohimbine 2 mg/kg; P<0.001
Method: Evaluation of Compound 1 on Oxycodone Reinstatement. After completion of testing rats were re-trained with oxycodone for one week to ensure stable baseline. Rats then underwent a 6-day extinction where only saline infusion occurred when active lever was pressed. Meanwhile, the rats were divided into 3 groups: All rats received one injection of alpha-2 adrenergic antagonist yohimbine (2 mg/kg) with 0 min pretreatment (rats were placed into the training box immediately). Thirty minutes before yohimbine treatment, one group of rats received saline, another group received MTEP 3 mg/kg injection, and the 3rd group received Compound 1 (3 mg/kg). Yohimbine-induced reinstatement was re-tested two more times in the same rats 3 days and 6 days after the first test, under continuous extinction procedure.
as §1, with “Statistical Analysis. Prism 9.40 software package Version 9 was used for statistical analysis and graphing. The number of active lever responses were recorded during each session and compared between treatment groups. A one-way” for “A one-way”, “MTEP on oxycodone self-administration in” for “MTEP on cocaine self-administration in”, “mean (s.e.m). Statistical outliers which exceeded mean +/− (2× standard deviation) of the group were removed from the analysis.” for “mean (s.e.m).”

[5] = yohimbine 2 mg/kg after saline pretreatment

Compound	alcohol intake at the 24-hr measurement interval, comparison of equivalent doses [1]	alcohol drinking at 1-hr of access vs vehicle control, positive control comparison ([1]; N=11)	cue-induced reinstatement in rats [2]	cocaine reinstatement, Mean Diff., Last Day of Cocaine Retraining vs. Saline - Yohimbine 2 mg/kg [3, 5]	cocaine reinstatement, Mean Diff., Last Day of Extinction vs. Saline - Yohimbine 2 mg/kg [3, 5]	reinstatement of cocaine self-administration after extinction ([3]; yohimbine 2 mg/kg, P<0.001)	reinstatement of oxycodone self-administration relative to extinguished level [4]
Cc1cccc(C#Cc2ccccc2)n1 [MPEP, reference compound]	only Compound 1 (3 mg/kg) maintained efficacy	significantly decreased alcohol drinking	blocks cue-induced reinstatement	–	–	–	–
COC(=O)[C@@H]1[C@H]2C[C@H]3c4[nH]c5ccccc5c4CCN3C[C@@H]2CC[C@@H]1O [Yohimbine, yohimbine]	–	–	–	6.294	−14.53	induced significant reinstatement	induced significant reinstatement
